This note sets out measurements from patent US20250255930A1, “METHODS OF TREATMENT OF TINNITUS USING DERIVATIVES OF OXYTOCIN” (MASKBEGONE LLC, priority 2024, published 2025).

The test in a line: clinical use of intranasal oxytocin formulations to treat tinnitus (patient case reports). It counts as in vivo, human. The source says:
According to an embodiment, this disclosure provides a method for treating tinnitus. The method comprises administering intranasally to an individual a composition comprising or consisting essentially of oxytocin, wherein such administration results in treatment of tinnitus. The effectiveness of treatment of tinnitus may be monitored by quantifying tinnitus, such as by self-evaluation using clinically accepted techniques. An example is the Tinnitus Handicap Inventory (“THI”), a validated and published measurement technique. (Newman et al., Arch Otolaryngol Head Neck Surg, 1996 February 122 (2), 143-8). In an embodiment, the improvement in an individual using THI may comprise an improvement of at least 10%. In various embodiments, the improvement may comprise from 10-100%, such as at least 20, 30, 40, 50, 60, 70, 80, 90, 95, or 99%.
This example describes clinical use of the present formulations to treat tinnitus. […] A compounded formulation of oxytocin that provided a dose of 60 IU daily (30 IU twice daily) was then used. The formulation contained oxytocin, magnesium chloride, citric acid, and sodium citrate in sterile water. […] The dose was then increased to 45 IU (3 sprays of 15 IU) 4 times daily. […] A thickener was then added to the formulation keeping the oxytocin amount the same. […] Their score on the Tinnitus Handicap Inventory reduced from a pretreatment score of 96 (meaning a catastrophic level) to a current score of 14 (meaning mild or no tinnitus). The patient has remained improved over 1 year since initiating therapy. Their current dose is 22.5 IU in each nostril 4 times daily. Since their tinnitus occurs in distinct cycles, at times when tinnitus severity is loudest, they increase the dose to 5 times daily for 2 days. […] Their current handicap inventory is 8.

The mark [1] stands for this setting: first patient, 22.5 IU in each nostril 4 times daily, 5 times daily for 2 days when loudest, past 3 months.
The mark [2] stands for this setting: patient with constant tinnitus, 30 IU 4 times daily, after 2 weeks.
Setting [3] is: second patient, 45 IU twice daily.

`CC[C@H](C)[C@@H]1NC(=O)[C@H](Cc2ccc(O)cc2)NC(=O)[C@@H](N)CSSC[C@@H](C(=O)N2CCC[C@H]2C(=O)N[C@@H](CC(C)C)C(=O)NCC(N)=O)NC(=O)[C@H](CC(N)=O)NC(=O)[C@H](CCC(N)=O)NC1=O` [oxytocin, Cys-Tyr-Ile-Gln-Asn-Cys-Pro-Leu-Gly]: the “time patient has remained improved since initiating therapy” value (first patient) is “over 1 year”. Under “first patient, 22.5 IU in each nostril 4 times daily, 5 times daily for 2 days when loudest”, the current handicap inventory is listed as 8. In addition, under setting [1], the time without tinnitus was no more than 10 days and the tinnitus severity entry is recorded as “reduced tinnitus severity”. Further, the relief of tinnitus entry (first patient, 45 IU (3 sprays of 15 IU) 4 times daily) was “significant relief”. In addition, the patient-reported benefit entry (first patient, 60 IU daily (30 IU twice daily), oxytocin, magnesium chloride, citric acid, sodium citrate in sterile water) is “partial benefit”. Besides, the “score on the Tinnitus Handicap Inventory” value (first patient, after treatment with thickener formulation, pretreatment score 96) amounted to 14. In addition, the relief of tinnitus result (first patient, initial dose of less than 20 IU daily) is “did not provide any relief”. For the same molecule, the tinnitus free period entry (first patient, thickener added to formulation, oxytocin amount the same (45 IU 4 times daily)) was “several days of tinnitus free period”. For the same molecule, the relief of tinnitus entry (lower amounts of oxytocin (such as under 20 IU per day)) was “did not result in any significant relief”. In addition, the improvement result (patient with constant tinnitus after neck injury, 45 IU (22.5 IU in each nostril) 4 times daily for 30 days) was “about 15%”. Further, for the setting “patient with constant tinnitus after neck injury, dose raised to 5 times daily on occasions”, the tinnitus volume entry is given as “diminished tinnitus volume”. Further, under setting [2], the “time without noticing the tinnitus” value is recorded as “several hours per day without noticing the tinnitus” and the tinnitus intensity result is “tinnitus intensity has lowered”. Further, the benefit entry (patient with drug-caused tinnitus, 30 IU twice daily) is “without benefit”. For the same molecule, the “decrease in tinnitus volume” value (patient with drug-caused tinnitus, 45 IU 4 times daily) is reported as “approximately 30%”. Under setting [3], the benefit result is “significant benefit”, the “reduction of tinnitus volume” value is 45-60%, the “time patient remains improved” value is given as “more than a year” and the tinnitus free days result is listed as “some days in which they are tinnitus free”.
